Entries after “also recorded” stand apart in the source; their conditions may differ.
How the values were obtained:
[1] = test system: mink lung epithelial cells; assay: Mink lung epithelial cell growth measured by DNA synthesis without added TGF-β1 (agonist activity); format: cell-based
Method: [Methyl-^3H]thymidine Incorporation—Mink lung epithelial cells grown on 24-well clustered dishes were incubated with various concentrations of TGF-β1 in the presence and absence of peptide β1^25 (41-65) or with various concentrations of peptide β1^25 (41-65)-CA, and peptide β1^25 (41-65)-BSA in DMEM containing 0.1% fetal calf serum. After 16 hr at 37° C., the cells were pulsed with 1 μCi/ml of [methyl-^3H]thymidine for 4 hr. The cells were then washed twice with 1 ml of 10% trichloroacetic acid and once with 0.5 ml of ethanol:ether (2:1, v/v). The cells were then dissolved in 0.4 ml of 0.2 N NaOH and counted with a liquid scintillation counter.

excision wounds = assay: Pig excision wound model; format: in vivo; conditions: for deposition / immunostaining of fibronectin in excision wounds / deposition / immunostaining of type I collagen in excision wounds: post-excision day 30 (legend: day 28), immunohistochemistry
Method: Preparation of IntraSite® gel containing TGF-β peptantagonist (peptide TGF-beta antagonist). 1 ml of sterile 6 mM peptide β1^25 (41-65) in phosphate buffered saline or 1 ml of sterile phosphate buffered saline was vigorously mixed with 3 ml of IntraSite® gel using two 10 ml syringes connected with a three-way connector. […] However, 1.5 mM of peptide β1^25 (41-65) was used throughout the experiments described below.
Excision wound model. Four pigs received intramuscular injection of ketamine, strenil® and atropine as described above. Six excision injuries were generated by removing full-thickness sections of skin (3×3 cm) from standardized sites on the back of each animal using a scapel. Three rabbits, were anesthetized by intramuscular injection of ketamine (5 mg/kg). Three excision injuries were produced in each by removing full-thickness sections of skin (0.5×1 cm) from each ear. After wounds, a thin layer of IntraSite® gel containing peptide β1^25 (41-65) was applied to alternating wounds on each animal and IntraSite® gel+buffer was applied to the other half. The excision wounds were then dressed with a paraffin gauze. For pig experiments, the dressing was changed every two days for the first 10 days and twice a week for the next 30 days. For rabbit experiments, the dressing was changed for the first 3 days. Gel containing peptide β1^25 (41-65) or control gel was applied at each dressing change.
Assessment of wound healing. Wound healing was assessed by evaluating the rates of wound re-epithelization and contraction. The open wound area and the area enclosed by the normal hair bearing skin were measured using the macrophotography technique (Ref. 14). The healing rate was monitored every two days for the first 10 days and twice a week for 30 more days. Wound reepithelialization as a percent of the original wound size was calculated using the following formula:
[formula] where C=rate of wound contraction in percent; Al=wound area as measured immediately following the burn or excision injury; An=area enclosed by normal hair bearing skin.
Immunohistochemistry. The wounds were frozen immediately after being removed from animals on post-excision day 30. Serial sections were placed on polylysine-coated slides. The sections containing wound areas were stained with hematoxylin/eosin and monoclonal antibodies to type I collagen and fibronectin and biotin-conjugated rabbit anti-mouse IgG/streptavidin-conjugated horseradish peroxidase (Ref. 16). The stained sections were examined and photographed by light microscopy.

For “ANFCLGPCPYIWSLDTQYSKVLALY [peptide β1^25 (41-65)]”, the “effect on DNA synthesis in the absence of TGF-β1” value ([1]; 0.1 μM to 36 μM peptide) was “did not have an effect”, the “reversal of growth inhibition induced by 0.2 μM β1^25 (41-65)-CA” value ([1]; 10 μM peptide, data not shown) was “abolished” and the “contraction of the wound” value (excision wounds; 1.5 mM in gel, topical) was “attenuated contraction”. The “vertical (length of the healed wound) contraction versus vehicle only” value (excision wounds; 1.5 mM in gel, topical) was “less vertical”, the “vertical (length of the healed wound) contraction versus vehicle only” value (excision wounds; 1.5 mM in gel, topical, listed as TGF-β peptantagonist) was “contracted vertically less; also recorded: less vertical” and the “deposition / immunostaining of fibronectin in excision wounds” value (excision wounds) was “diminished the deposition”. For the same sequence, the “deposition / immunostaining of type I collagen in excision wounds” value (excision wounds) was “diminished the deposition”, the “deposition / immunostaining of fibronectin in excision wounds” value (excision wounds; listed as TGF-β peptantagonist) was “less intensity of staining” and the “deposition / immunostaining of type I collagen in excision wounds” value (excision wounds; listed as TGF-β peptantagonist) was “less intensity of staining”. The “horizontal (width of the healed wound) contraction” value (excision wounds; post-excision day 41) was “almost contracted completely”.

Reference: patent publication US7723473B2, “Peptide antagonists of TGF-beta family members and therapeutic uses thereof” (St. Louis University, priority 1997, dated 2010)
